Laboratory results published in patent US20070099877A1, “N-aryl-thienopyrimidin-4-amines and analogs as activators of caspases and inducers of apoptosis and the use thereof” (Cytovia, Inc., priority 2005, published 2007).
Where a name gives a salt, the structure may show the parent alone. Read-outs that look alike come from different tables or passages of the source.

Tests used:
Type in all cases: cell-based
[1] = test system: multi-drug resistant (MDR) murine leukemia cell line P388ADR; assay: Inhibition of cell proliferation (GI50) in P388/ADR cells; conditions: Mus musculus, Table IV, read-out: GI50 in Multi-Cancer Cells P388/ADR
Description: (§1) Human breast cancer cell lines T-47D, MX-1 and MDAMB435, human colon cancer cell line HT29, and human lung cancer cell line H1299 were grown and harvested as in Example 75. An aliquot of […] of cells (4.4×10^4 cells/mL) was added to a well of a 96-well microtiter plate containing 5 μL of a 10% DMSO in RPMI-1640 media solution containing 10 nM to 100 μM of N-(2,5-dimethoxyphenyl)-2-methylthieno[3,2-d]pyrimidin-4-amine (1 nM to 10 μM final). An aliquot of 45 μL of cells was added to a well of a 96-well microtiter plate containing 5 μL of a 10% DMSO in RPMI-1640 media solution without compound as the control sample for maximal cell proliferation (Lmax). The samples were mixed by agitation and then incubated at 37° C. for 48 h in a 5% CO2-95% humidity incubator. After incubation, the samples were removed from the incubator and 25 μL of CellTiter-Glo™ reagent (Promega) was added. The samples were mixed by agitation and incubated at room temperature for 10-15 min. Plates were then read using a luminescent plate reader (Model SPECTRAfluor Plus, Tecan) to give Ltest values.
(§2) Baseline for GI50 (dose for 50% inhibition of cell proliferation) of initial cell numbers was determined by adding an aliquot of 45 μL of cells or 45 μL of media, respectively, to wells of a 96-well microtiter plate containing 5 μL of a 10% DMSO in RPMI-1640 media solution. The samples were mixed by agitation and then incubated at 37° C. for 0.5 h in a 5% CO2-95% humidity incubator. After incubation, the samples were removed from the incubator and 25 μL of CellTiter-Glo™ reagent (Promega) was added. The samples were mixed by agitation and incubated at 37° C. for 10-15 min at room temperature in a 5% CO2-95% humidity incubator. Fluorescence was read as above, (LStart) defining luminescence for initial cell number used as baseline in GI50 determinations.
(§3) GI50 (dose for 50% inhibition of cell proliferation) is the concentration where [(LTest−Lstart)/(LMax−Lstart)]=0.5.
Several compounds were tested in multi cancer cell lines, including human breast cancer cell lines T-47D, MX-1, SKBR3 and MDAMB435, human hepatocellular carcinoma cell line SNU398, human colon carcinoma cell line HCT116, human sarcoma cell line MES-SA and multi-drug resistant (MDR) human sarcoma cell line MES-SA/ADR, murine leukemia cell line P388 and multi-drug resistant (MDR) murine leukemia cell line P388ADR, and the data are summarized in Table IV.

[2] = test system: breast cancer cell line SKBR3; assay: Caspase cascade activation in SKBR3 cells; conditions: Homo sapiens, SK-BR-3, 48 h, read-out: Caspase Activation Potency EC50 SKBR3
[3] = test system: human breast cancer cell line T-47D; assay: Caspase cascade activation (DEVD-R110 fluorogenic substrate) in T-47D cells; conditions: Homo sapiens, T47D
How it was run: (§4)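 Cells were exposed to compound at 0.016 to 10 μM final for 24 h or 48 h at 37 °C. They were then lysed with 14 μM N-(Ac-DEVD)-N′-ethoxycarbonyl-R110 in lysolecithin/DTT/PIPES buffer pH 7.2 for 3 h at room temperature (ex 485/em 530 nm). EC50 came from a sigmoidal fit of net RFU relative to untreated control.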

[4] = test system: human B cell lymphoblastoid cell line Ramos; assay: Caspase cascade activation in Ramos cells; conditions: 48 h, read-out: Caspase Activation Potency EC50 Ramos
[5] = test system: human breast cancer cell line MDAMB435; assay: Inhibition of cell proliferation (GI50) in MDAMB435 cells
Description: as §1, §2, §3

[6] = test system: human Burkitt's lymphoma cell line Namalwa; assay: Caspase cascade activation in Namalwa cells; conditions: Burkitts lymphoma cell, 48 h, read-out: Caspase Activation Potency EC50 Namalwa
[7] = test system: human breast cancer cell line MX-1; assay: Inhibition of cell proliferation (GI50) in MX-1 cells; conditions: MX1 cells
Description: as §1, §2, §3

[8] = test system: human lung cancer cell line H1299; assay: Caspase cascade activation in H1299 cells; conditions: NCI-H1299, 24 h, read-out: Caspase activation Potency EC50 H1299 (24 h)
How it was run: as §4

[9] = test system: human lung cancer cell line H1299; assay: Inhibition of cell proliferation (GI50) in H1299 cells; conditions: NCI-H1299, Table III, 48 h
Description: as §1, §2, §3

[10] = 24 h, T47D cells, 24 h, read-out: Caspase activation Potency EC50 T47D (24 h)
[11] = 48 h, T-47D cells, 48 h, read-out: Caspase activation Potency EC50 T-47D (48 h)
[12] = MDA-MB-435, Table IV, read-out: GI50 in Multi-Cancer Cells MDAMB435
[13] = Table IV, read-out: GI50 in Multi-Cancer Cells MX1

## COc1cc(Nc2ncnc3ccsc23)cc(OC)c1 [Example 12, N-(3,5-Dimethoxyphenyl)thieno[3,2-d]pyrimidin-4-amine hydrochloride]
[1]
  GI50: 296 nM
[2]
  EC50: 77 nM
[3]; [10]
  EC50: 38 nM
[3]; [11]
  EC50: 62 nM
[4]
  EC50: 582 nM
[5]; [12]
  GI50: 105 nM
[6]
  EC50: 356 nM
[7]; [13]
  GI50: 17 nM
[8]
  EC50: 303 nM

## COc1ccc(OC)c(Nc2ncnc3ccsc23)c1 [Example 2, N-(2,5-Dimethoxyphenyl)thieno[3,2-d]pyrimidin-4-amine]
[1]
  GI50: 2600 nM
[3]; [10]
  EC50: 61 nM
[3]; [11]
  EC50: 105 nM
[9]
  GI50: 1040 nM
[5]; MDA-MB-435, Table III, 48 h, read-out: GI50 in Cancer Cells MDAMB435
  GI50: 756 nM
[5]; [12]
  GI50: 1070 nM
[7]; Table III, 48 h, read-out: GI50 in Cancer Cells MX1
  GI50: 300 nM
[7]; [13]
  GI50: 800 nM
[8]
  EC50: 2910 nM
